In PubChem BioAssay (NCI):
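Grown in 96-well plates, cells were treated for 48 hours with each compound at five concentrations. Insufficient inhibition: endpoint recorded as highest concentration tested. The concentration for 50% growth inhibition is given as GI50. TGI is the concentration that stops growth completely.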

How the values were obtained:
Test in all cases: NCI-60 cell line screen, 48 h
[1] = system: SK-MEL-2 melanoma
[2] = system: T-47D breast
[3] = system: HT29 colon
[4] = system: ACHN renal
[5] = system: OVCAR-5 ovarian
[6] = system: RXF 393 renal
[7] = system: MALME-3M melanoma
[8] = system: TK-10 renal
[9] = system: UACC-257 melanoma
[10] = system: M14 melanoma

## O=P(Oc1ccccc1)(Oc1ccccc1)C(O)c1ccccc1 (stereo not given)
[1]
  GI50: 81.4 µM
  TGI: > 100 µM
[2]
  GI50: 25.2 µM
  TGI: > 100 µM
[3]
  GI50: 78.1 µM
  TGI: > 100 µM
[4]
  GI50: > 100 µM
  TGI: > 100 µM
[5]
  GI50: > 100 µM
  TGI: > 100 µM
[6]
  GI50: 60.6 µM
  TGI: > 100 µM
[7]
  GI50: 4.65 µM
  TGI: > 100 µM
[8]
  GI50: > 100 µM
  TGI: > 100 µM
[9]
  GI50: 36.5 µM
  TGI: > 100 µM
[10]
  GI50: > 100 µM
  TGI: > 100 µM

## COc1ccc(/C=C/C(=O)/C=C(/C=C/c2ccc(OC)c(OC)c2)OB(F)F)cc1OC
[1]
  GI50: 1.81 µM
  TGI: 4.39 µM
[2]
  GI50: 0.805 µM
  TGI: > 100 µM
[3]
  GI50: 1.03 µM
  TGI: 4.95 µM
[4]
  GI50: 0.352 µM
  TGI: 1.98 µM
[5]
  GI50: 2.26 µM
  TGI: 5.86 µM
[6]
  GI50: 0.34 µM
  TGI: 1.31 µM
[7]
  GI50: 0.51 µM
  TGI: 4.25 µM
[8]
  GI50: 1.25 µM
  TGI: 9.48 µM
[9]
  GI50: 1.76 µM
  TGI: 5.55 µM
[10]
  GI50: 0.519 µM
  TGI: 3.55 µM

## O=C(O)CSCC(=O)c1ccccc1
[1]
  TGI: > 100 µM
[2]
  TGI: > 100 µM
[3]
  TGI: > 100 µM
[4]
  TGI: > 100 µM
[5]
  TGI: > 100 µM
[6]
  TGI: > 100 µM
[7]
  TGI: > 100 µM
[8]
  TGI: > 100 µM
[9]
  TGI: > 100 µM
[10]
  TGI: > 100 µM

## O=C(O)C(Cc1ccccc1-c1ccccc1)C(=O)O
[1]
  TGI: > 100 µM
[2]
  TGI: > 100 µM
[3]
  TGI: > 100 µM
[4]
  TGI: > 100 µM
[5]
  TGI: > 100 µM
[6]
  TGI: > 100 µM
[7]
  TGI: > 100 µM
[8]
  TGI: > 100 µM
[9]
  TGI: > 100 µM
[10]
  TGI: > 100 µM

## O=C(Nc1cccc(NS(=O)(=O)c2ccc(F)cc2)c1)c1ccc(-c2ccccc2)cc1
[1]
  GI50: 2.42 µM
  TGI: 7.88 µM
[2]
  GI50: 2.28 µM
  TGI: 7.88 µM
[3]
  GI50: 4.85 µM
  TGI: 18.6 µM
[4]
  GI50: 3.65 µM
  TGI: 42.7 µM
[5]
  GI50: 7.84 µM
  TGI: 75.8 µM
[6]
  GI50: 3.65 µM
  TGI: 20.7 µM
[7]
  GI50: 2.81 µM
  TGI: 10.2 µM
[8]
  GI50: 3.77 µM
  TGI: 36.5 µM
[9]
  GI50: 2.76 µM
  TGI: 9.93 µM
[10]
  GI50: 3.63 µM
  TGI: 17.1 µM

## O=C(O)C1CCCN1Cc1c[nH]c2ccccc12 (stereo not given)
[1]
  TGI: > 100 µM
[2]
  TGI: > 100 µM
[3]
  TGI: > 100 µM
[4]
  TGI: > 100 µM
[5]
  TGI: > 100 µM
[6]
  TGI: > 100 µM
[7]
  TGI: > 100 µM
[8]
  TGI: > 100 µM
[9]
  TGI: > 100 µM
[10]
  TGI: > 100 µM

## O=C1CC2(CCCc3sccc32)C(=O)N1 (stereo not given)
[1]
  TGI: > 100 µM
[2]
  TGI: > 100 µM
[3]
  TGI: > 100 µM
[4]
  TGI: > 100 µM
[5]
  TGI: > 100 µM
[6]
  TGI: > 100 µM
[7]
  TGI: > 100 µM
[8]
  TGI: > 100 µM
[9]
  TGI: > 100 µM
[10]
  TGI: > 100 µM

## Nc1nc(SCC(=O)O)[nH]c(=O)c1N
[1]
  TGI: > 100 µM
[2]
  TGI: > 100 µM
[3]
  TGI: > 100 µM
[4]
  TGI: > 100 µM
[5]
  TGI: > 100 µM
[6]
  TGI: > 100 µM
[7]
  TGI: > 100 µM
[8]
  TGI: > 100 µM
[9]
  TGI: > 100 µM
[10]
  TGI: > 100 µM
